The values that follow are results of earlier work, collected in US20250255801A1, “Novel Parenteral Composition Comprising Linagliptin or its Salts” (Zenvision Pharma LLP, priority 2021, published 2025).

The conditions of series [1]: high solubility and low permeability.
Test in series [2]: not given
This is another data set of the same source.

Values after ≈ are worked out from the molar mass of the structure shown.

For the compound `CC#CCn1c(N2CCC[C@@H](N)C2)nc2c1c(=O)n(Cc1nc(C)c3ccccc3n1)c(=O)n2C` [Linagliptin, 1H-Purine-2,6-dione, 8-[(3R)-3-amino-1-piperidinyl]-7-(2-butyn-1-yl)-3,7-dihydro-3-methyl-1-[(4-methyl-2 quinazolinyl)methyl]-], the oral systemic bioavailability result is “approximately 30%”. Besides, the BCS class result in series [1] is reported as “Class III”. The Solubility in acetone result in series [2] (acetone) is “ca. 1 mg/mL”. Further, the Solubility in ethanol entry in series [2] (ethanol) is recorded as “ca. 10 mg/mL”. For the same compound, the Solubility in isopropanol in series [2] (isopropanol) was below 1000 µg/mL. In addition, the Solubility in methanol result in series [2] (methanol) is “ca. 60 mg/mL”. In addition, the Solubility in water in series [2] (water) was 900 µg/mL (≈ 1900 µM).
